From US10206907B2, “Compounds useful for the treatment of degenerative and inflammatory diseases” (GALAPAGOS NV, priority 2008, dated 2019)

Columns and labels:
[1] = molecular target: Recombinant human JAK1 catalytic domain (Homo sapiens (Human), UniProt P23458); assay: JAK1 inhibition assay; type: biochemical; conditions: semi-quantitative score
In short: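 Radiometric assay read by scintillation counting after phosphoric-acid washes. Percent inhibition calculated from cpm relative to vehicle and 10 μM staurosporine control. IC50 derived from compound dose-dilution series.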

[2] = molecular target: Recombinant human JAK2 catalytic domain (Homo sapiens (Human), UniProt O60674); assay: JAK2 inhibition assay; type: biochemical; conditions: semi-quantitative score
Chain of Recombinant human JAK2 catalytic domain (O60674 808-1132): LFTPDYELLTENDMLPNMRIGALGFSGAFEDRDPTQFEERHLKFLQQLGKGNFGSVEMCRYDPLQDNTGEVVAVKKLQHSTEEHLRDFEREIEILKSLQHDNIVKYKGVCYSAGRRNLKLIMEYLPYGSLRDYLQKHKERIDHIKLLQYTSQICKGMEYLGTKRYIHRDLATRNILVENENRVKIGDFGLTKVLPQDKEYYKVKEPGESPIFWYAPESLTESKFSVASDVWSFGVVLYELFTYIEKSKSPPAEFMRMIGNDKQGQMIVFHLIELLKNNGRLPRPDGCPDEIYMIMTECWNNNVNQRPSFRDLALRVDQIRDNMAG
Experimental: After 90 min at 30° C., reactions were stopped by adding of 25 μL/well of 150 mM phosphoric acid. […] Plates were washed 6 times with 300 μL per well of a 75 mM phosphoric acid solution and the bottom of the plates was sealed. 40 μL/well of Microscint-20 was added, the top of the plates was sealed and readout was performed using the Topcount (Perkin Elmer). Kinase activity was calculated by subtracting counts per minute (cpm) obtained in the presence of a positive control inhibitor (10 μM staurosporine) from cpm obtained in the presence of vehicle. The ability of a test compound to inhibit this activity was determined as: Percentage inhibition=((cpm determined for sample with test compound present−cpm determined for sample with positive control inhibitor) divided by (cpm determined in the presence of vehicle−cpm determined for sample with positive control inhibitor))*100%.
Dose dilution series were prepared for the compounds enabling the testing of dose-response effects in the JAK2 assay and the calculation of the IC50 for each compound.

Chain of Recombinant human JAK1 catalytic domain (P23458 850-1154): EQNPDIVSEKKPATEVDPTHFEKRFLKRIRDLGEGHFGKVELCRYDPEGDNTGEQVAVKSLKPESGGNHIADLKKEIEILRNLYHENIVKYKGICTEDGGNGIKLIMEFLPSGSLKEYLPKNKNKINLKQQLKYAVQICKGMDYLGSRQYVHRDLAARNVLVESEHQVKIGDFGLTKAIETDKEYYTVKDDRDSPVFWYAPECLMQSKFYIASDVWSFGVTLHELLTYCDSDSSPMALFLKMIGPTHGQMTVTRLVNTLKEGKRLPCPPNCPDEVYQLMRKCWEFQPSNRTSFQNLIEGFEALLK

| SMILES | IC50 [1] [nM] | IC50 [2] [nM] |
| --- | --- | --- |
| CN1CCN(c2ccc(NC(=O)c3ccc(-c4cccc5nc(NC(=O)C6CC6)nn45)cc3)cn2)CC1 [Compound 205, 4-[2-(Cyclopropanecarbonyl-amino)-[1,2,4]triazolo[1,5-a]pyridin-5-yl]-N-[6-(4-methyl-piperazin-1-yl)-pyridin-3-yl]-benzamide] | 101 to 500 | 501 to 1000 |
| O=C(Nc1nc2cccc(-c3ccc(C(=O)N4C[C@@H]5C[C@H]4CO5)cc3)n2n1)C1CC1 [Compound 217, Cyclopropanecarboxylic acid {5-[4-((1S,4S)-2-oxa-5-aza-bicyclo[2.2.1]heptane-5-carbonyl)-phenyl]-[1,2,4]triazolo[1,5-a]pyridin-2-yl}-amide] | 101 to 500 | 501 to 1000 |
| O=C(Nc1nc2cccc(-c3ccc(C(=O)N4CCC(C(=O)N5CCOCC5)CC4)cc3)n2n1)C1CC1 [Compound 219, Cyclopropanecarboxylic acid (5-{4-[4-(morpholine-4-carbony)-piperidine-1-carbonyl]-phenyl}-[1,2,4]triazolo[1,5-a]pyridin-2-yl)-amide] | > 1000 | > 1000 |
| CC(=O)N1CCN(C(=O)c2ccc(-c3cccc4nc(NC(=O)C5CC5)nn34)cc2)CC1 [Compound 220, Cyclopropanecarboxylic acid {5-[4-(4-acetyl-piperazine-1-carbonyl)-phenyl]-[1,2,4]triazolo[1,5-a]pyridin-2-yl}-amide] | 101 to 500 | 501 to 1000 |
| O=C(Nc1nc2cccc(-c3ccc(CNc4ccc(N5CCOCC5)nc4)cc3)n2n1)C1CC1 [Compound 237, Cyclopropanecarboxylic acid (5-{4-[(6-morpholin-4-yl-pyridin-3-ylamino)-methyl]-phenyl}-[1,2,4]triazolo[1,5-a]pyridin-2-yl)-amide] | 101 to 500 | 501 to 1000 |
| O=C(Nc1nc2cccc(-c3ccc(CN4CCC(O)CC4)cc3)n2n1)C1CC1 [Compound 242, Cyclopropanecarboxylic acid {5-[4-(4-hydroxy-piperidin-1-ylmethyl)-phenyl]-[1,2,4]triazolo[1,5-a]pyridin-2-yl}-amide] | 101 to 500 | 501 to 1000 |
| CC(C)(O)C1CCN(Cc2ccc(-c3cccc4nc(NC(=O)C5CC5)nn34)cc2)CC1 [Compound 243, Cyclopropanecarboxylic acid (5-{4-[4-(1-hydroxy-1-methyl-ethyl)-piperidin-1-ylmethyl]-phenyl}-[1,2,4]triazolo[1,5-a]pyridin-2-yl)-amide] | 101 to 500 | 501 to 1000 |
| CCN(CC)C1CCN(Cc2ccc(-c3cccc4nc(NC(=O)C5CC5)nn34)cc2)CC1 [Compound 247, Cyclopropanecarboxylic acid {5-[4-(4-diethylamino-piperidin-1-ylmethyl)-phenyl]-[1,2,4]triazolo[1,5-a]pyridin-2-yl}-amide] | > 1000 | > 1000 |
| O=C(Nc1nc2cccc(-c3ccc(CN4CCC(CO)CC4)cc3)n2n1)C1CC1 [Compound 250, Cyclopropanecarboxylic acid {5-[4-(4-hydroxymethyl-piperidin-1-ylmethyl)-phenyl]-[1,2,4]triazolo[1,5-a]pyridin-2-yl}-amide] | 101 to 500 | 501 to 1000 |
| NC(=O)C1CCN(C(=O)c2ccc(-c3cccc4nc(NC(=O)C5CC5)nn34)cc2)CC1 [Compound 274, 1-{4-[2-(Cyclopropanecarbonyl-amino)-[1,2,4]triazolo[1,5-a]pyridin-5-yl]-benzoyl}-piperidine-4-carboxylic acid amide] | 101 to 500 | 501 to 1000 |
| CC(C)(C)OC(=O)NC1CN(Cc2ccc(-c3cccc4nc(NC(=O)C5CC5)nn34)cc2)C1 [Compound 279, (1-{4-[2-(Cyclopropanecarbonyl-amino)-[1,2,4]triazolo[1,5-a]pyridin-5-yl]-benzyl}-azetidin-3-yl)-carbamic acid tert-butyl ester] | 101 to 500 | > 1000 |
| CCOC1CCN(Cc2ccc(-c3cccc4nc(NC(=O)C5CC5)nn34)cc2)CC1 [Compound 282, Cyclopropanecarboxylic acid {5-[4-(4-ethoxy-piperidin-1-ylmethyl)-phenyl]-[1,2,4]triazolo[1,5-a]pyridin-2-yl}-amide] | 101 to 500 | > 1000 |

Second part, the compound after the results:

| IC50 [1] [nM] | IC50 [2] [nM] | SMILES |
| --- | --- | --- |
| 101 to 500 | 101 to 500 | CC1(C)COCCN1Cc1ccc(-c2cccc3nc(NC(=O)C4CC4)nn23)cc1 [Compound 213, Cyclopropanecarboxylic acid {5-[4-(3,3-dimethyl-morpholin-4-ylmethyl)-phenyl]-[1,2,4]triazolo[1,5-a]pyridin-2-yl}-amide] |
| 101 to 500 | 101 to 500 | C[C@@H]1CN(Cc2ccc(-c3cccc4nc(NC(=O)C5CC5)nn34)cc2)C[C@H](C)O1 [Compound 214, Cyclopropanecarboxylic acid {5-[4-((2R,6S)-2,6-dimethyl-morpholin-4-ylmethyl)-phenyl]-[1,2,4]triazolo[1,5-a]pyridin-2-yl}-amide] |
| 101 to 500 | 101 to 500 | CC1(C)COCCN1C(=O)c1ccc(-c2cccc3nc(NC(=O)C4CC4)nn23)cc1 [Compound 216, Cyclopropanecarboxylic acid {5-[4-(3,3-dimethyl-morpholine-4-carbonyl)-phenyl]-[1,2,4]triazolo[1,5-a]pyridin-2-yl}-amide] |
| 101 to 500 | 101 to 500 | Cn1nc(C2CC2)cc1NC(=O)c1ccc(-c2cccc3nc(NC(=O)C4CC4)nn23)cc1 [Compound 218, 4-[2-(Cyclopropanecarbonyl-amino)-[1,2,4]triazolo[1,5-a]pyridin-5-yl]-N-(5-cyclopropyl-2-methyl-2H-pyrazol-3-yl)-benzamide] |
| 101 to 500 | 101 to 500 | O=C(Nc1nc2cccc(-c3ccc(CN4C[C@@H]5C[C@H]4CO5)cc3)n2n1)C1CC1 [Compound 230, Cyclopropanecarboxylic acid (5-{4-[(1S,4S)-1-(2-oxa-5-aza-bicyclo[2.2.1]hept-5-yl)methyl]-phenyl}-[1,2,4]triazolo[1,5-a]pyridin-2-yl)-amide] |
| 101 to 500 | 101 to 500 | O=C(Nc1nc2cccc(-c3ccc(CNc4cc(C(F)(F)F)ccc4F)cc3)n2n1)C1CC1 [Compound 248, Cyclopropanecarboxylic acid (5-{4-[(2-fluoro-5-trifluoromethyl-phenylamino)-methyl]-phenyl}-[1,2,4]triazolo[1,5-a]pyridin-2-yl)-amide] |
| – | 101 to 500 | O=C(Nc1nc2cccc(-c3ccc(CNc4ccccc4)cc3)n2n1)C1CC1 [Compound 261, Cyclopropanecarboxylic acid [5-(4-phenylaminomethyl-phenyl)-[1,2,4]triazolo[1,5-a]pyridin-2-yl]-amide] |
| – | 101 to 500 | CC(=O)N(C)C1CCN(Cc2ccc(-c3cccc4nc(NC(=O)C5CC5)nn34)cc2)C1 (stereo not shown) [Compound 262, Cyclopropanecarboxylic acid (5-{4-[3-(acetyl-methyl-amino)-pyrrolidin-1-ylmethyl]-phenyl}-[1,2,4]triazolo[1,5-a]pyridin-2-yl)-amide] |
| – | 101 to 500 | CN(C)C1CCN(Cc2ccc(-c3cccc4nc(NC(=O)C5CC5)nn34)cc2)C1 (stereo not shown) [Compound 263] |
| – | 101 to 500 | O=C(Nc1nc2cccc(-c3ccc(CN4CCC(F)(F)C4)cc3)n2n1)C1CC1 [Compound 264, Cyclopropanecarboxylic acid {5-[4-(3,3-difluoro-pyrrolidin-1-ylmethyl)-phenyl]-[1,2,4]triazolo[1,5-a]pyridin-2-yl}-amide] |
